The structures appear in SMILES notation. Where two headings read alike, the source gives them in different places. Starred links: 1 amine or outer side, 2 acyl side, 3 side chain; linkers in the order of their positions; H or OH if unused. Positions of bridges follow the written chain, without caps; N, C: chain ends. Residues, ends and D or L forms follow the SMILES beside them. Benzene(1,3,5-(CH2S)3) = c1c(CS[*:1])cc(CS[*:3])cc1CS[*:2]

The target in experiment [1] is T1, JNK3 (Homo sapiens, UniProt P53779).
T1 construct: 39-402 was performed as described in literature; made in house
T1 sequence (P53779 39-402 limits assumed): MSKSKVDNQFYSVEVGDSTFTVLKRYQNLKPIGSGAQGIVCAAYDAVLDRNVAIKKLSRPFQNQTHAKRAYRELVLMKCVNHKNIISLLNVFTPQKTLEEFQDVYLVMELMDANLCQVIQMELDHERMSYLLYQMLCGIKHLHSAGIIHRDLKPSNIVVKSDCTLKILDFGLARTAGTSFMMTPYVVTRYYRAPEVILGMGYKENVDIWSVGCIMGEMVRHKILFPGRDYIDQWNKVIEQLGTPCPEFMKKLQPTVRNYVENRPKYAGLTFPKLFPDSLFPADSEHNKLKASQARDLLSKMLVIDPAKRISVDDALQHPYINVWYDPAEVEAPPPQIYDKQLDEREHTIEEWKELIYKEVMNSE
As to the kind of experiment: direct titration fluorescence polarization assay. It counts as binding. The conditions noted are these: direct titration FP. As for the experimental part:
(§1) VII: Expression and Purification of JNK3
(§2) The expression and purification of JNK3339-402 was performed as described in literature. [Lange, A.; Günther, M.; Büttner, F. M.; Zimmermann, M. O.; Heidrich, J.; Hennig, S.; Zahn, S.; Schall, C.; Sievers-Engler, A.; Ansideri, F.; et al. Targeting the Gatekeeper MET146 of C-Jun N-Terminal Kinase 3 Induces a Bivalent Halogen/Chalcogen Bond. Journal of the American Chemical Society 2015, 137
(§3) VIII: Fluorescence polarization assay
Fluorescence polarization assays were performed in 96-wellplates (black, non-binding, Greiner bio-one). The measurements were performed in a CLARIOstar microplate reader (BMG Labtech, Ortenberg, Germany; excit. filter: 480 nm and an emiss. filter: 530 nm). Purified JNK3 was diluted in buffer (HEPES-Buffer, 25 mM) containing additional 0.1 mg/mL BSA. In the case of direct binding fluorescence polarization experiments, each protein concentration with a maximum concentration between 5 μM and 200 μM and a minimum concentration between 0.08 nM – 0.76 nM was measured in triplicates. The KD was obtained by curve fit based on eleven protein concentrations. […]
(§4) For all experiments DMSO (>99.5% (GC)) was […]
(§5) consistently used with a steady concentration of 5% (v/v). Before each measurement, the plates were shaked at 350 rpm for 30 min at room temperature on a plate shaker (Eppendorf MixMate). Before the measurement, the plates were incubated within the microplate reader for 2 min at 25°C and the focal height was adjusted to yield the optimal fluorescence intensity. Measured data was plotted and KD values were obtained by curve fitting of a standard four parameter logistic nonlinear regression model using the program Origin 9.1.
IX: Fluorescence polarization data
Table S2: Overview of the results obtained in direct titration fluorescence polarization assays.
SE = standard error from curve fit, SD = standard deviation from experiments 1-3. […]
Nucleic Acids Research, 37(Web Server issue), W441–W445], SE = standard error from curve fit. […]
A general note: In fluorescence polarisation assays a small probe gives low polarisation when free and higher when bound to something large.

The target in experiment [2] is T1, JNK3. In words: competitive fluorescence polarization assay (displacement of PIT0105006). The class given is binding. The conditions noted are these: competitive FP. As for the experimental part:
as §1, §2, §3
Fluorescence polarization assays were performed in 96-wellplates (black, non-binding, Greiner bio-one). The measurements were performed in a CLARIOstar microplate reader (BMG Labtech, Ortenberg, Germany; excit. filter: 480 nm and an emiss. filter: 530 nm). Purified JNK3 was diluted in buffer (HEPES-Buffer, 25 mM) containing additional 0.1 mg/mL BSA. […]
The KD was obtained by curve fit based on eleven protein concentrations. For competitive binding fluorescence polarization experiments, sample concentrations between 200 μM and 10 nM were measured in triplicates. A steady concentration of 10 nM was used for JNK3 and of 5 nM for the fluorescein-labelled compound PIT0105006 (KD= 3.0 ± 0.2 nM). [Ansideri, F.; Lange, A; El-Gokha […]
A.; Boeckler F. M.; Koch, P. Fluorescence polarization-based assays for detecting compounds binding […]
503, 28-40.]Control measurements were performed with PIT0104002 (concentration between 10 μM […]
as §4, §5
IX: Fluorescence polarization data […]
Table S3: Overview of the results obtained in competitive fluorescence polarization assays. a Conversion of obtained IC50 mean values to KI were performed using a web-based application available at: http://sw16.im.med.umich.edu/software/calc_ki/ (19.07.2018) [Cer, R. Z., Mudunuri, U., Stephens, R., & Lebeda, F. J. (2009). IC50-to-Ki: a web-based tool for converting IC50 to Ki values for inhibitors of enzyme activity and ligand binding. Nucleic Acids Research, 37(Web Server issue), W441–W445], SE = standard error from curve fit. […]

Setting [3] is: fluorescein-labeled TPSMB-modified bicyclic peptide, JNK3 titrated, eleven protein concentrations in triplicates, 25 mM HEPES, 0.1 mg/mL BSA, 5% DMSO, 25°C, mean of experiments 1-3 (JK16, JK18: one experiment), read-out: Mean KD.
Where [4] appears, read: converted from mean IC50 with web-based IC50-to-Ki tool, read-out: KI.
[5] abbreviates: unlabeled TPSMB bicyclic peptide displacing 5 nM PIT0105006 from 10 nM JNK3, 200 μM-10 nM in triplicates, 5% DMSO, 25°C, experiment 1, read-out: IC50 Exp. 1.
Where [6] appears, read: unlabeled TPSMB bicyclic peptide, mean of experiments 1-2 (JK20: one experiment), read-out: Mean IC50.

By Kd is commonly meant the concentration at which binding is half-saturated. The Ki is a measure of affinity in units of concentration, obtained from inhibition or displacement. The term IC50 denotes the concentration needed to halve the response being measured. For `CSCC[C@@H]1NC(=O)[C@@H]2CSSCc3cc(cc(c3)CSSC[C@@H](C(=O)NCC(N)=O)NC(=O)[C@H](Cc3c[nH]c4ccccc34)NC(=O)[C@H](CCCNC(=N)N)NC(=O)[C@H](Cc3ccc(O)cc3)NC(=O)[C@H](CC(=O)O)NC(=O)[C@H](Cc3ccccc3)NC1=O)CSSC[C@H](NC(=O)[C@H](C)N)C(=O)N[C@@H](CC(=O)O)C(=O)N[C@@H](CC(=O)O)C(=O)N[C@@H](CCC(N)=O)C(=O)N[C@@H](Cc1c[nH]c3ccccc13)C(=O)N[C@@H](CCC(=O)O)C(=O)N[C@@H](Cc1ccc(O)cc1)C(=O)N2` [JK1-TPSMB] (H-ACDDQWEYCMFDYRWCG-NH2; linker 2-9-16 via Benzene(1,3,5-(CH2S)3)), the Kd at JNK3 [1] (setting [3]) came to 1.7 ± 0.8 µM. Besides, the Ki at JNK3 [2] (setting [4]) amounted to 6.6 µM; at JNK3 [2] (single experiment with IC50 = 15.6 μM, read-out: KI (Figure 5B)), 3.6 µM. The IC50 on JNK3 [2] (setting [5]) was determined as 15.6 µM; at JNK3 [2] (unlabeled TPSMB bicyclic peptide displacing 5 nM PIT0105006 from 10 nM JNK3, experiment 2, read-out: IC50 Exp. 2), 41.3 µM.

On to `CSCC[C@H](NC(=O)[C@H](CS)NC(=O)[C@H](Cc1ccc(O)cc1)NC(=O)[C@H](CCC(=O)O)NC(=O)[C@H](Cc1c[nH]c2ccccc12)NC(=O)[C@H](CCC(N)=O)NC(=O)[C@H](CC(=O)O)NC(=O)[C@H](CC(=O)O)NC(=O)[C@H](CS)NC(=O)[C@H](C)N)C(=O)N[C@@H](Cc1ccccc1)C(=O)N[C@@H](CC(=O)O)C(=O)N[C@@H](Cc1ccc(O)cc1)C(=O)N[C@@H](CCCNC(=N)N)C(=O)N[C@@H](Cc1c[nH]c2ccccc12)C(=O)N[C@@H](CS)C(=O)NCC(N)=O` [JK1] (H-ACDDQWEYCMFDYRWCG-NH2), for which the Kd was 1.7 ± 0.8 µM at JNK3 [1] (setting [3]) and roughly 390 µM on JNK3 [1] (fluorescein-labeled unmodified linear peptide, without cyclisation by TPSMB, curve fit (SE: 250 μM), read-out: KD of linear peptide). Further, the Ki on JNK3 [2] (setting [4]) stood at 6.6 µM. At JNK3 [2] (setting [6]), the IC50 was 28.4 µM.

`CC(C)C[C@@H]1NC(=O)[C@H](CC(=O)O)NC(=O)[C@H](CCC(=O)O)NC(=O)[C@@H]2CSSCc3cc(cc(c3)CSSC[C@@H](C(=O)NCC(N)=O)NC(=O)[C@H](CC(=O)O)NC(=O)[C@H](CC(=O)O)NC(=O)[C@H](CC(N)=O)NC1=O)CSSC[C@H](NC(=O)[C@H](C)N)C(=O)N[C@@H](Cc1ccccc1)C(=O)N[C@@H](Cc1c[nH]c3ccccc13)C(=O)N[C@@H](Cc1c[nH]c3ccccc13)C(=O)N[C@@H](Cc1ccccc1)C(=O)NCC(=O)N[C@@H](C)C(=O)N2` [JK10-TPSMB] (H-ACFWWFGACEDLNDDCG-NH2; linker 2-9-16 via Benzene(1,3,5-(CH2S)3)): the Ki at JNK3 [2] (setting [4]) was determined as 5.5 µM. Moreover, the IC50 at JNK3 [2] (setting [6]) stood at 23.6 µM.

Take `CC[C@H](C)[C@@H]1NC(=O)[C@H](CCC(=O)O)NC(=O)[C@H](CC(=O)O)NC(=O)[C@H](Cc2c[nH]cn2)NC(=O)[C@@H](NC(=O)[C@H](C)N)CSSCc2cc3cc(c2)CSSC[C@H](NC(=O)[C@H]([C@@H](C)O)NC(=O)[C@H](Cc2c[nH]c4ccccc24)NC1=O)C(=O)N[C@@H](C(C)C)C(=O)N[C@@H](Cc1ccccc1)C(=O)N[C@@H](Cc1c[nH]cn1)C(=O)N[C@@H](CC(=O)O)C(=O)N[C@@H](CCC(=O)O)C(=O)N[C@@H](Cc1ccccc1)C(=O)N[C@H](C(=O)NCC(N)=O)CSSC3` [JK20-TPSMB] (H-ACHDEIWTCVFHDEFCG-NH2; linker 2-9-16 via Benzene(1,3,5-(CH2S)3)): the Ki at JNK3 [2] (setting [4]) turned out to be 6.5 µM. Further, the concentration for half-maximal inhibition (IC50) at JNK3 [2] (setting [5]) and on JNK3 [2] (setting [6]) was 27.8 µM in each case.

The values are drawn from article PMC6198510, “Switching Between Bicyclic and Linear Peptides — The Sulfhydryl-Specific Linker TPSMB Enables Reversible Cyclization of Peptides” (Frontiers in Chemistry, 2018).
